Data reported in patent publication US10391150B2, “Treatments for migraine and related disorders” (The University of Chicago, priority 2011, dated 2019).

Tests used:
[1] = system: spreading depression (SD) in hippocampal slice cultures; assay: Spreading depression (SD) threshold / susceptibility in hippocampal slice cultures; type: cell-based, rat
Description: FIGS. 2A-2E. […] (FIG. 2A) Experiments begin with determination of the current needed to maximize standard CA3 area field potential responses. Half-maximal intensity is then used to elicit CA3 area evoked field potentials from dentate gyrus bipolar electrical stimulation. This documents the normalcy of evoked synaptic responses between preparations. If a slice's field excitatory post synaptic potentials are not at least 3 mV, slices are discarded. Next, field potential trains (i) are noted to verify that preparations are healthy enough to follow 10 Hz stimulation (e.g., amplitudes of vertical deviations in fast potential records are similar) and the current needed to trigger SD (ii) is registered (Pusic and Kraig, 2010).
(FIG. 8a) Exemplary CA3 area evoked field potential. Experiments begin with establishment of the current intensity needed to evoke maximal field potential responses; stimuli of half-maximal intensity were then used to elicit subsequent field potentials. Only those cultures with CA3 pyramidal neuron post-synaptic responses of at least 3 mV were used for experiments. (FIG. 8b) CA3 response to dentate gyrus bipolar stimulation (10 pulses at 10 Hz, 500 μA) was used to elicit a spreading depression (SD), as shown in (FIG. 8c). (FIG. 8c) The spreading depression (SD) shown here was induced by the stimulation/response (arrow) shown in (FIG. 8b). […] Comparisons between groups made via Student's t-test.
(§1) The inventors induced SD trans-synaptically in rat HSC using electrical stimuli (100 μs pulses @ 10 Hz for 1 s) ranging from 1 to 10,000 nC in order to determine SD threshold in sham and experimental groups (Pusic et al., 2011). Results were based on n≥3-6/group. […] This insulin dose approximates the pharmacological levels seen in humans treated with nasal insulin.
Slice cultures were prepared and maintained as previously described (Mitchell et al., 2010a,). After 18 days in vitro (DIV), slice cultures were transferred to serum-free media that included additional calcium and magnesium. Cultures were screened at 21 DIV to ensure no pyramidal neuron death was present. Standard electrophysiological recordings were performed by placing a slice culture insert in a PDMI recording chamber with controlled temperature and pH (FIG. 1). The recording chamber was aerated with 5% CO2-balance air at 36° C. and media flowing at 1.2 mL/min or was held static around the slice culture insert. A recording electrode was placed at the CA3 pyramidal cell layer and a stimulating electrode was placed at the surface of the dentate gyrus. Recordings were initiated prior to placing the stimulating electrode on the culture to ensure no spreading depression was triggered as a result.
Studies began with determination of the current needed to maximize standard CA3 area field potential responses. This documented the normalcy of evoked synaptic responses between preparations. If a slice's field EPSPs were not at least 3-4 mV, it was discarded.
Next, trans-synaptically evoked SD was determined. Here, the inventors stimulated slices via the dentate gyrus with 100 μs pulses delivered at 10 Hz for 1 sec every 1-2 minutes at increasing μA current intensities until SD occurred.
Slice cultures are prepared, maintained, and induced to fire SD as previously described using trans-synaptic excitation of CA3, where SD is initiated (FIG. 4) (Kunkler et al., 2005; Pusic et al., 2011).

[2] = system: OS from cLTP in hippocampal slice cultures; assay: OS / reactive oxygen species generated from chemical long-term potentiation (cLTP) in slice cultures; type: cell-based, rat; conditions: 3 days treatment (IFN-γ 500 U/mL; IL-11; IGF-1), compared to shams
Method: This beneficial effect of low-level IFN-γ is supported by results from rats. In rats, enrichment, which occurs with hippocampal learning, led to a significant elevation in hippocampal T-cells, IFN-γ and MBP.
Experiments were performed in rat hippocampal slices cultures and SD induced as previously described (Pusic et al., 2011). Results were derived from n≥3-6/group. […] This is consistent with the neural activity increase seen after SD, which mimics the hyperexcitability evident in migraine patients.
as §1, with “This prompted the inventors to examine whether insulin could reduce SD susceptibility by increasing CA3 pyramidal neuron bursting. The” for “The”, “insulin. […] The inventors hypothesized that the effect of insulin occurred through IGF-1 receptor cross-talk.” for “insulin.”
The inventors use a well-accepted method for inducing cLTP in slice cultures (Kraig et al., 2010; Otmakhov et al., 2004a; Otmakhov et al., 2004b; Kopec et al., 2006). The protocol consists of raising cAMP levels and increasing synaptic activity using rolipram/forskolin applied in a Mg^2+-free Ringer's solution (36° C.) for 5 min, then allowing slices to recover in normal media.

Row | Molecule | increase of SD threshold compared to control ([1]; 3-day exposure to IGF-1) | increase of SD threshold compared to control ([1]; 7-day phasic exposure to IGF-1 (12 hours a day)) | increase of SD threshold compared to control ([1]; acute (15-30 min) exposure to IGF-1) | relative SD threshold levels ([1]; coincubation with ascorbate and IGF-1 versus IGF-1 alone) | OS / reactive oxygen species generated from cLTP [2] | susceptibility to SD ([1]; IFN-γ 500 U/mL, at 1 day)
1 | Insulin-like growth factor 1 [IGF-1] | 75 fold | 22 fold | 24 fold | 1.00±0.31 | significant reduction in OS from cLTP | –
2 | Interferon-gamma (protein, listed as Homo sapiens) MKYTSYILAFQLCIVLGSLGCYCQDPYVKEAENLKKYFNAGHSDVADNGTLFLGILKNWKEESDRKIMQSQIVSFYFKLFKNFKDDQSIQKSVETIKEDMNVKFFNSNKKKRDDFEKLTNYSVTDLNVQRKAIHELIQVMAELSPAAKTGKRKRSQMLFRGRRASQ | – | – | – | – | significantly reduced reactive oxygen species | significantly increased susceptibility to SD
